Assay results from PMC5881017, “Mechanisms of BK Channel Activation by Docosahexaenoic Acid in Rat Coronary Arterial Smooth Muscle Cells” (Frontiers in Pharmacology, 2018).

Biological target: T1, large-conductance calcium-activated potassium (BK) channel (Rattus norvegicus, UniProt Q62976)
T1 construct: gene Kcnma1; native BK channels in freshly isolated rat coronary arterial smooth muscle cells (inside-out patches)
Assay: inside-out single-channel patch clamp (open probability at +[…] mV)
Type: cell-based

T1 sequence (Q62976 whole entry): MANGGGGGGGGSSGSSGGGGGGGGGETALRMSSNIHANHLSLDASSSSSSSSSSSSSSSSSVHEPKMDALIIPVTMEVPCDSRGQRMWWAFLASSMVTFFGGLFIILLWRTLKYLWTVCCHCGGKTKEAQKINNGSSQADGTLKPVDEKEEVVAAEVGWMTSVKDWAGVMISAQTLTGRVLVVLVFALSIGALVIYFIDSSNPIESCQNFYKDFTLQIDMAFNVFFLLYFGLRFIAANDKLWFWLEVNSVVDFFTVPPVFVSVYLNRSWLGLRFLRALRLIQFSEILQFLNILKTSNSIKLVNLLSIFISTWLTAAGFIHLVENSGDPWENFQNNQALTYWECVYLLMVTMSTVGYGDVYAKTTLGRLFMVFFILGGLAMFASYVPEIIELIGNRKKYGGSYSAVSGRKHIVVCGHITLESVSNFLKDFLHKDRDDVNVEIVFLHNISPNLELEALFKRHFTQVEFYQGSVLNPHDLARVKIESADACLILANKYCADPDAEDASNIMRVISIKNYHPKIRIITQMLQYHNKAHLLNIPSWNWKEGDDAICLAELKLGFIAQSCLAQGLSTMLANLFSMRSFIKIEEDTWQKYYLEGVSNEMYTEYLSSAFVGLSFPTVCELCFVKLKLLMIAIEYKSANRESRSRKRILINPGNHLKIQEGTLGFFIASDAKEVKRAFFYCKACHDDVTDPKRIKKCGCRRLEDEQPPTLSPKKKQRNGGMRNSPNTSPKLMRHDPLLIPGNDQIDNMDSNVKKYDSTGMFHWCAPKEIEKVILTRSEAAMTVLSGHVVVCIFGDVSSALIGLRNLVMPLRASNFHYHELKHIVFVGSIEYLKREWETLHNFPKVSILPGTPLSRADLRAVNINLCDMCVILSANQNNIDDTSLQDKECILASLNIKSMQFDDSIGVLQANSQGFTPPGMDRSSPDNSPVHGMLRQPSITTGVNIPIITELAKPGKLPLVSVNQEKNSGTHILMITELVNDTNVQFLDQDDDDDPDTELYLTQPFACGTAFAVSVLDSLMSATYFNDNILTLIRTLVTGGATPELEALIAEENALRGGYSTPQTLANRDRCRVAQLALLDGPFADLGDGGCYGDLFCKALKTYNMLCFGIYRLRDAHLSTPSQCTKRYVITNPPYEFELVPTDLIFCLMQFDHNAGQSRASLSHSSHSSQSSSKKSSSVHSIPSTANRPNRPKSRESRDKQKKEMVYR

EC50: 3.37 ± 0.1 µM
Structure (SMILES): CC/C=C\C/C=C\C/C=C\C/C=C\C/C=C\C/C=C\CCC(=O)O [Docosahexaenoic acid]
